{
  "source": "paper PMC9684503",
  "about": "(Communications Biology, 2022)",
  "key": {"[1]": {"target": "T1, VMAT2 (Rattus norvegicus, UniProt Q01827)", "T1 sequence (Q01827 whole entry)": "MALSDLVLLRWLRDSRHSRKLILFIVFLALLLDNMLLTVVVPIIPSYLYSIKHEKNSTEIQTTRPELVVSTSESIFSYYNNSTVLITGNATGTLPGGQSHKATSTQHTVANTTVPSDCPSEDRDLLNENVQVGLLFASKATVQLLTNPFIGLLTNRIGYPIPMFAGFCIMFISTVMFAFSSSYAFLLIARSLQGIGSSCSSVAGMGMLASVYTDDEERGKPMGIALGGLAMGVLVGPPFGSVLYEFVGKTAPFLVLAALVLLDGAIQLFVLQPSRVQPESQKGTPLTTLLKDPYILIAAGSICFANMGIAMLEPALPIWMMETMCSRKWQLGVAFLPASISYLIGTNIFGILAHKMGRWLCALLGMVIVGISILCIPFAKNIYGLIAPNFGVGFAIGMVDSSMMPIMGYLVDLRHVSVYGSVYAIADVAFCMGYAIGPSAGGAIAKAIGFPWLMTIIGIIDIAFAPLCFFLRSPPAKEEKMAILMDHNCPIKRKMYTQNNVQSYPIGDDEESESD", "conditions": "hek293 cells, 50 µM", "protocol": "(§1) We preincubated cells expressing VMAT2 with 50 μM compounds and measured [^3H]-DTBZ binding (5 nM) to the sample (Fig. 3a). […] Hek293 cells were grown and transfected with pcDNA3.1 VMAT2-His as described above. Two days after transfection, cells were harvested, washed and transferred to 96 well MultiScreen FB filter plates (Millipore). […] Cells were washed 3 times with ice cold PBS and 50 µl Ultima Gold LLL (PerkinElmer) was added to each well. […] After a 20 min incubation at 37 °C, cells were washed and [^3H] scintillation counting was performed as described above."}, "[2]": {"target": "rat VMAT2 (Rattus norvegicus, UniProt Q01827)", "sequence (Q01827 whole entry)": "as above", "assay": "FFN206 uptake assay in transfected Hek293 cells", "conditions": "for FFN206 uptake relative to no compound (=1), replicate samples: listed as Indacterol"}, "[3]": {"target": "T1, VMAT2", "assay": "[3H]-DTBZ competition assay in Hek293 cells expressing VMAT2;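 as to all read-outs here: HEK293 cells transfected with VMAT2, pretreated 30 min with compound, then given 5 nM [3H]-DTBZ for 20 min at 37 °C, bound label read by scintillation counting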", "conditions": "50 μM compound", "protocol": "as §1"}, "[4]": {"target": "T2, rat VMAT2-His (Rattus norvegicus, UniProt Q01827)", "T2 construct": "The ORF of rat VMAT2 was subcloned into a pFastBac vector; His; made in house; host or cells: Sf9 insect cells (baculovirus)", "T2 sequence (Q01827 whole entry)": "as above", "assay": "Differential scanning fluorimetry (DSF) with CPM dye: change of melting temperature of purified VMAT2", "type": "binding", "conditions": "for ΔTm at 12 µM / ΔTm at 37 µM / ΔTm at 10 µM / ΔTm at 30 µM / ΔTm at 90 µM / ΔTm at 270 µM / ΔTm at 11 µM / ΔTm at 33 µM: Table S2 dose response, read-out: ΔTm; for ΔTm at 12 µM: compound 0,12 µM; for ΔTm at 37 µM: compound 0,37 µM; for ΔTm at 10 µM: compound 10 µM; for ΔTm at 30 µM: compound 30 µM; for ΔTm at 90 µM: compound 90 µM; for ΔTm at 270 µM: compound 270 µM; for ΔTm at 11 µM: compound 1,11 µM; for ΔTm at 33 µM: compound 3,33 µM", "procedure": "To screen purified VMAT2 by DSF we expressed the rat VMAT2 protein, as VMAT2-His, in SF9 insect cells using the baculovirus expression system. The transporter was solubilized and purified in n-Dodecyl-β-D-maltoside (DDM)/cholesterol hemisuccinate (CHS) micelles by immobilized metal affinity chromatography (IMAC) and size exclusion chromatography (SEC). […] Screening was performed using DSF and the thiol-reactive dye 7-diethylamino-3-(4-maleimidophenyl)-4-methylcoumarin (CPM), an approach that monitors changes to the protein melting temperature (Tm) upon compound binding. Using CPM or other dyes, DSF-based assays have successfully been used in molecular-based screenings[34],[35]. […] DSF screening was performed in 384 well plates using the thiol-sensing dye 7-diethylamino-3-(4-maleimidophenyl)-4-methylcoumarin (CPM) (Merck). […] Protein melting curves were determined using a LightCycler 480 ii RT-PCR system (Roche), with a temperature ramp increasing from 25 to 95 °C at a rate of 2 °C/min. Data analysis was performed using an in-house software that automatically determines the protein midpoint melting temperature (Tm) based on the second derivative of the melting curves or using the HTSDSF explorer as described in ref. [58]. […] 6 μl of this mix was dispensed to each well of 384 well plates using a Multidrop™ Combi Reagent Dispenser (Thermo Scientific). […] All initial hits were then subjected to an initial validation in triplicates with a compound concentration of 200 μM and a ΔTm > 5× the standard deviation (SD) cut off. […] Processing of the data from the primary screening and the concentration-dependent validation was performed as reported."}, "[5]": {"conditions": "Table 1, DSF screening, mean ± SD of triplicates"}},
  "note": "Where “and” joins values, the source holds several entries; their conditions need not be identical. Equal values may be shown once. Where a name gives a salt, the structure may show the parent alone. Read-outs that look alike come from different tables or passages of the source.",
  "data": [
    {"molecule": "CCN(CC)CCCC(C)Nc1ccnc2cc(Cl)ccc12", "note": "(stereo not shown) [Chloroquine]", "values": [
      {"measurement": "activity", "setting": "[1]", "value": "85.1 ± 11.3", "unit": "%"},
      {"measurement": "IC50", "setting": "[2]", "value": "> 10", "unit": "µM"},
      {"measurement": "effect on [3H]-DTBZ binding compared with DMSO control (one-way ANOVA, p < 0.001)", "setting": "[3]", "value": "no statistically significant effect"}
    ]},
    {"molecule": "CC(C)NCC(O)COc1ccc(CCOCC2CC2)cc1", "note": "(stereo not shown) [Betaxolol, Betaxolol hydrochloride]", "values": [
      {"measurement": "ΔTm", "setting": "[4]; [5]", "value": "1.98 ± 0.15", "unit": "oC"},
      {"measurement": "ΔTm at 12 µM", "setting": "[4]", "value": -0.32, "unit": "°C"},
      {"measurement": "ΔTm at 37 µM", "setting": "[4]", "value": -0.34, "unit": "°C"},
      {"measurement": "ΔTm at 10 µM", "setting": "[4]", "value": 0.12, "unit": "°C"},
      {"measurement": "ΔTm at 30 µM", "setting": "[4]", "value": 0.01, "unit": "°C"},
      {"measurement": "ΔTm at 90 µM", "setting": "[4]", "value": 0.2, "unit": "°C"},
      {"measurement": "ΔTm at 270 µM", "setting": "[4]", "value": 1.16, "unit": "°C"},
      {"measurement": "ΔTm at 11 µM", "setting": "[4]", "value": 0.01, "unit": "°C"},
      {"measurement": "ΔTm at 33 µM", "setting": "[4]", "value": 0.01, "unit": "°C"},
      {"measurement": "IC50", "setting": "[2]", "value": "6.85 ± 3.62", "unit": "µM"}
    ]},
    {"molecule": "CCCC(=O)Nc1ccc(OCC(O)CNC(C)C)c(C(C)=O)c1", "note": "(stereo not shown) [Acebutolol, Acebutolol hydrochloride]", "values": [
      {"measurement": "ΔTm", "setting": "[4]; [5]", "value": "2.14 ± 0.05", "unit": "oC"},
      {"measurement": "ΔTm at 12 µM", "setting": "[4]", "value": 0.2, "unit": "°C"},
      {"measurement": "ΔTm at 37 µM", "setting": "[4]", "value": 0.03, "unit": "°C"},
      {"measurement": "ΔTm at 10 µM", "setting": "[4]", "value": 0.2, "unit": "°C"},
      {"measurement": "ΔTm at 30 µM", "setting": "[4]", "value": 0.31, "unit": "°C"},
      {"measurement": "ΔTm at 90 µM", "setting": "[4]", "value": 0.33, "unit": "°C"},
      {"measurement": "ΔTm at 270 µM", "setting": "[4]", "value": 0.9, "unit": "°C"},
      {"measurement": "ΔTm at 11 µM", "setting": "[4]", "value": 0.3, "unit": "°C"},
      {"measurement": "ΔTm at 33 µM", "setting": "[4]", "value": 0.03, "unit": "°C"},
      {"measurement": "IC50", "setting": "[2]", "value": "> 10", "unit": "µM"},
      {"measurement": "IC50", "setting": "[2]; read-out: IC50, rat VMAT2, Table S1, substrate uptake assays in transfected Hek293 cells", "value": "< 10", "unit": "µM"}
    ]},
    {"molecule": "CCc1cc2c(cc1CC)CC(NC[C@H](O)c1ccc(O)c3[nH]c(=O)ccc13)C2", "note": "[Indacaterol]", "values": [
      {"measurement": "ΔTm", "setting": "[4]; [5]", "value": "−1.26 ± 0.15", "unit": "oC"},
      {"measurement": "activity", "setting": "[1]", "value": "31.6 ± 4.76", "unit": "%"},
      {"measurement": "IC50", "setting": "[2]", "value": "0.372 ± 0.195", "unit": "µM"},
      {"measurement": "FFN206 uptake relative to no compound (=1), replicate samples", "setting": "[2]; Fig. 2b/2c source data, compound 0.0152 μM", "value": "1.046 and 0.9873 and 0.9954 and 1.047"},
      {"measurement": "FFN206 uptake relative to no compound (=1), replicate samples", "setting": "[2]; Fig. 2b/2c source data, compound 0.1372 μM", "value": "0.9052 and 0.9503 and 0.5975 and 0.7395"},
      {"measurement": "FFN206 uptake relative to no compound (=1), replicate samples", "setting": "[2]; Fig. 2b/2c source data, compound 0.4115 μM", "value": "0.655 and 0.7802 and 0.5475 and 0.5896"},
      {"measurement": "FFN206 uptake relative to no compound (=1), replicate samples", "setting": "[2]; Fig. 2b/2c source data, compound 1.2346 μM", "value": "0.389 and 0.3824 and 0.2984 and 0.2513"},
      {"measurement": "FFN206 uptake relative to no compound (=1), replicate samples", "setting": "[2]; Fig. 2b/2c source data, compound 3.7037 μM", "value": "0.2198 and 0.2721 and 0.1271 and 0.01615"},
      {"measurement": "FFN206 uptake relative to no compound (=1), replicate samples", "setting": "[2]; Fig. 2b/2c source data, compound 11.1111 μM", "value": "0.3236 and 0.15 and 0.08791 and -0.0508"},
      {"measurement": "FFN206 uptake relative to no compound (=1), replicate samples", "setting": "[2]; Fig. 2b/2c source data, compound 100.0000 μM", "value": "0.1623 and 0.1126 and 0.06583 and 0.01394"},
      {"measurement": "FFN206 uptake relative to no compound (=1), replicate samples", "setting": "[2]; Fig. 2c source data, compound 0.0017 μM", "value": "0.9404 and 1.104 and 0.8827 and 0.8866"},
      {"measurement": "effect on [3H]-DTBZ binding compared with DMSO control (one-way ANOVA, p < 0.001)", "setting": "[3]", "value": "statistically significantly effect"}
    ]},
    {"molecule": "CC(C)NCC(O)c1ccc2ccccc2c1", "note": "(stereo not shown) [Pronethalol, Pronethalol hydrochloride]", "values": [
      {"measurement": "ΔTm", "setting": "[4]; 10 µM", "value": "0,71 oC"},
      {"measurement": "ΔTm", "setting": "[4]; 11 µM", "value": "0,70 oC"},
      {"measurement": "ΔTm", "setting": "[4]; 12 µM", "value": "-0,02 oC"},
      {"measurement": "ΔTm", "setting": "[4]; 30 µM", "value": "1,83 oC"},
      {"measurement": "ΔTm", "setting": "[4]; 33 µM", "value": "0,48 oC"},
      {"measurement": "ΔTm", "setting": "[4]; 37 µM", "value": "0,21 oC"},
      {"measurement": "ΔTm", "setting": "[4]; 90 µM", "value": "2,42 oC"},
      {"measurement": "ΔTm", "setting": "[4]; 270 µM", "value": "3,75 oC"},
      {"measurement": "IC50", "setting": "[2]", "value": "1.01 ± 0.3", "unit": "µM"}
    ]},
    {"molecule": "CC(C)NCC(O)COc1ccc(COCCOC(C)C)cc1", "note": "(stereo not shown) [Bisoprolol]", "values": [
      {"measurement": "ΔTm", "setting": "[4]; [5]", "value": "1.49 ± 0.05", "unit": "oC"},
      {"measurement": "IC50", "setting": "[2]", "value": "3.17 ± 0.895", "unit": "µM"}
    ]},
    {"molecule": "CC(C)(C)NCC(O)c1cc(Cl)c(N)c(Cl)c1", "note": "(stereo not shown) [Clenbuterol]", "values": [
      {"measurement": "ΔTm", "setting": "[4]; [5]", "value": "2.19 ± 0.13", "unit": "oC"},
      {"measurement": "IC50", "setting": "[2]", "value": "> 10", "unit": "µM"}
    ]}
  ]
}
